What was measured:
Format in all cases: physicochemical
[1] = Thermodynamic solubility studies; conditions: for Average Concentration: triplicate average; for Form by XRPD Dry: residual solids dried under vacuum; for Form by XRPD Wet: residual solids
Method: For each experiment, approximately 50 mg of either crystal form A or crystal form B was weighed into a 20 mL scintillation vial. 15 mL of the appropriate solvent system was added and the solution was stirred at 37° C. At approximately 7.5 h, a portion of the mother liquor was transferred to a pre-heated vial (at 37° C.) via syringe filter (0.45 μm). An aliquot of slurry was removed, and the solids in the aliquot were isolated by centrifugation and plated for XRPD analysis. The plated solids were stored in freezer for 12 h prior to analysis.
The remaining solution was further stirred at 37° C. overnight (approximately 25 h total stirring time). Stirring was then terminated and the solids were allowed to settle. After approximately 0.75 h, a portion of the mother liquor was transferred to a pre-heated vial (at 37° C.) via syringe filter (0.45 μm). The residual solids were isolated by centrifugation and analyzed by XRPD.
For “dry” analysis, the XRPD plates were dried under vacuum at ambient temperature for approximately 23 h and re-analyzed.

[2] = Dynamic Vapor Sorption (DVS)
Method: Approximately 10-20 mg of sample was placed into a mesh vapor sorption balance pan and loaded into a Surface Measurement Systems DVS Intrinsic dynamic vapor sorption balance. The material was subjected to a ramping profile from 40 to 90% relative humidity (RH) at 10% increments, maintaining the sample at each step until a stable weight had been achieved (dm/dt 0.004%, minimum step length 30 minutes, maximum step length 500 minutes) at 25° C. After completion of the sorption cycle, the sample was dried using the same procedure to 0% RH and then a second sorption cycle back to 40% RH was carried out. Two cycles were performed. The weight change during the sorption/desorption cycles were plotted, allowing the hygroscopic nature of the sample to be determined. XRPD analysis was then carried out on any solid retained.
Because this equilibration with ambient humidity is rapid, calculation or use of sufficiently accurate assay results on Form A material must take into account its current water content.

[3] = Thermogravimetric Analysis/Dynamic Temperature Analysis (TGA/DTA); conditions: for TGA wt. loss: from the onset to about 210° C., heating 10° C./min
Method: Approximately 5-10 mg of material was weighed into an open aluminum pan and loaded into a TA Instruments SDT650 and held at room temperature. The sample was then heated at a rate of 10° C./min from 30° C. to 350° C. during which time the change in sample weight was recorded along with the heat flow response (DSC). Nitrogen was used as the purge gas, at a flow rate of 100 cm^3/min for both the sample and balance purges.

[4] = FaSSGF, after approximately 7.5 h at 37° C.
[5] = FaSSGF, after approximately 25 h at 37° C.
[6] = FaSSIF, after approximately 7.5 h at 37° C.
[7] = FaSSIF, after approximately 25 h at 37° C.
[8] = FeSSIF, after approximately 7.5 h at 37° C.
[9] = FeSSIF, after approximately 25 h at 37° C.
[10] = pH 6.1 media, after approximately 7.5 h at 37° C.
[11] = pH 6.1 media, after approximately 25 h at 37° C.
[12] = pH 6.8 media, after approximately 7.5 h at 37° C.
[13] = pH 6.8 media, after approximately 25 h at 37° C.
[14] = FaSSGF, approximately 7.5 h at 37° C.
[15] = FaSSGF, approximately 25 h at 37° C.
[16] = FeSSIF, approximately 7.5 h at 37° C.
[17] = FeSSIF, approximately 25 h at 37° C.
[18] = pH 6.1 media, approximately 25 h at 37° C.
[19] = pH 6.8 media, approximately 25 h at 37° C.

Row | SMILES | Average Concentration [1, 4] | Average Concentration [1, 5] | Average Concentration [1, 6] | Average Concentration [1, 7] | Average Concentration [1, 8] | Average Concentration [1, 9] | Average Concentration [1, 10] | Average Concentration [1, 11] | Average Concentration [1, 12] | Average Concentration [1, 13] | TGA wt. loss [3] | further results
1 | CCCCCCC(C)(C)c1cc(O)c2c(c1)OC(C)(C)[C@@H]1CC=C(C(=O)O)C[C@@H]21 [crystal form A, (6aR,10aR)-1-hydroxy-6,6-dimethyl-3-(2-methyl-2-octanyl)-6a,7,10,10a-tetrahydro-6H-benzo[c]chromene-9-carboxylic acid] | 0.2 µg/mL | 0.2 µg/mL | 1063 µg/mL | 391 µg/mL | 335 µg/mL | 227 µg/mL | 3.0 µg/mL | 2.0 µg/mL | 18 µg/mL | 14 µg/mL | 0.7 % wt. | Form by XRPD Dry [1, 14]: A + trace B; Form by XRPD Dry [1, 15]: B + A; Form by XRPD Dry [1, 16]: A*; Form by XRPD Dry [1, 17]: (X) +; Form by XRPD Dry [1, 18]: A +; Form by XRPD Dry [1, 19]: A*; Form by XRPD Wet [1, 14]: A + trace B; Form by XRPD Wet [1, 15]: A + B; Form by XRPD Wet ([1]; FaSSIF, approximately 25 h at 37° C.): B +; Form by XRPD Wet [1, 16]: A*; Form by XRPD Wet [1, 17]: (X) +; Form by XRPD Wet [1, 18]: A + B; Form by XRPD Wet [1, 19]: A*; uptake of water by weight ([2]; at 90% RH, similar DVS studies): about 3.5%; TGA wt. loss ([3]; listed as Crystal Form A): 0.7 % wt.
2 | CCCCCCC(C)(C)c1cc(O)c2c(c1)OC(C)(C)[C@@H]1CC=C(C(=O)O)C[C@@H]21 [crystal form B, (6aR,10aR)-1-hydroxy-6,6-dimethyl-3-(2-methyl-2-octanyl)-6a,7,10,10a-tetrahydro-6H-benzo[c]chromene-9-carboxylic acid] | 0.3 µg/mL | 0.4 µg/mL | 242 µg/mL | 266 µg/mL | 684 µg/mL | 696 µg/mL | 1.2 µg/mL | 0.1 µg/mL | 4.3 µg/mL | 2.0 µg/mL | 0.9 % wt. | water uptake ([2]; at 90% RH, 25° C.): circa 1 wt %; hygroscopic nature by DVS ([2]; ramping 40 to 90% RH, 25° C.): slightly hygroscopic; Post-DVS XRPD analysis ([2]; solid retained after two sorption/desorption cycles): no change in pattern; TGA wt. loss ([3]; listed as Crystal Form B): no significant mass loss; decomposition temperature by TGA/DTA ([3]; heating 10° C./min from 30° C. to 350° C.): ca. 285 °C
